Laboratory results reported in patent publication US12162857B2, “Antiviral compounds” (priority 2022, dated 2024).

Legend:
[1] = system: Human RSV-A (“Long” strain); assay: RSV-A assay: CPE in Hep-2 cells, ATPlite readout; format: cell-based; settings: human respiratory syncytial virus, 120 h, MOI 0.1, 5-day incubation
Description: Hep-2 cells, (originally derived from tumors grown in irradiated-cortisonised weanling rats that had been injected with epidermoid carcinoma tissue from a person's larynx, but later found to be indistinguishable from HeLa cells by PCR DNA analysis), were used for the culturing of genotype A, “Long” strain RSV. Flasks were inoculated with RSV and viral stocks were collected once cytopathic effect (CPE) was greater than 90%. Viral stocks in 25% sucrose media were snap frozen using liquid nitrogen to increase viral stability. Viral stock titers were quantified by tissue culture infectious dose 50% (TCID50) using 8,000 cells per well and 3-fold viral dilutions across a 96-well plate, cultured for 4 days. Viral stock titers were also quantified by a plaque forming unit assay, as described elsewhere.
Following extensive parameter testing, the final assay is run as follows: Hep-2 cells are seeded into the inner 60 wells of a 96-well plate at 8,000 cells per well in a volume of 50 μL using Growth Media (DMEM without phenol red, 1% L-Glut, 1% Penn/Strep, 1% nonessential amino acids, 10% heat-inactivated FBS). 2-fold serial dilutions of control and test compounds are added to the wells in duplicate in a total volume of 25 μL. Viral stock is then added to the wells at a multiplicity of infection (MOI) of 0.1 in a volume of 25 μL, bringing the total volume of each well to 100 μL. The MOI is calculated using the PFU/mL, or TCID50 if unavailable. Each 96-well plate has a control column of 6 wells with cells and virus but no compound (negative control, max CPE), a column with cells but no compound or virus (positive control, minimum CPE), and a column with no cells or virus or compound (background plate/reagent control). The control wells with cells but no virus are given an additional 25 μL of growth media containing an equal quantity of sucrose as those wells receiving the viral stock in order to keep consistent in media and volume conditions. The outer wells of the plate are filled with 125 μL of moat media (DMEM, 100 Penn/Strep) to act as a thermal and evaporative moat around the test wells. Following a 5-day incubation period, the plates are read using ATPlite (50 uL added per well), which quantifies the amount of ATP (a measure of cell health) present in each well. Assay plates are read using the Envision luminometer. […] EC50 ranges are as follows: A<0.01 μM; B 0.01-0.05 μM; C>0.05 μM.

HMPV A2 TN/94-49 = assay: HMPV antiviral assay: LLC-MK2 cells, ATP-Lite readout; format: cell-based; settings: LLC-MK2, 168 h, MOI 0.005, 7 days incubation
Method in brief: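 LLC-MK2 cells (5,000/well) were infected in suspension with HMPV A2 TN/94-49 at MOI 0.005 in serum-free OptiMEM with 2 μg/mL final TPCK-trypsin, then incubated for 7 days at 37 °C. Compounds were tested in duplicate from 2 μM in 10-point 2.5-fold dilutions. ATP-Lite luminescence, normalised to virus-only and cells-only controls as % cell health, gave EC50 by four-parameter fit.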

SMILES | EC50 [1] [nM] | EC50 (HMPV A2 TN/94-49) [nM]
COc1cc(C(=O)NC[C@](O)(c2cc(C(F)(F)C(N)=O)c(F)c(-c3cc(Cl)c(F)cc3F)n2)C2CC2)cc2cn(C3(F)CC3)nc12 (single isomer, unassigned) [Example 39] | < 10 | 
CC(C)(O)c1cc([C@@](O)(CNC(=O)c2cc(OC3CC3)c3nn(C4(F)CC4)cc3c2)C2CC2)nc(-c2ccc(F)cc2)c1F [Example 5] | < 10 | < 1000
COc1cc(C(=O)NC[C@@](O)(c2ccccc2)c2nc(-c3cc(Cl)c(F)cc3F)c(F)c(C(C)(C)O)c2F)cc2cn(C3CC3)nc12 [Example 127] | < 10 | < 1000
COc1cc(C(=O)NC[C@](O)(c2cc(C3(C(N)=O)CC3)cc(-c3cc(Cl)c(F)cc3F)n2)C2CC2)cc2cn(C(F)F)nc12 (single isomer, unassigned) [Example 25] | 10 to 50 | > 1000
CC(C)(O)c1cc([C@@](O)(CNC(=O)c2cc(F)c3nn(C(F)F)cc3c2)C2CC2)nc(-c2ccc(F)cc2)c1F (single isomer, unassigned) [Example 7] | > 50 | > 1000
COc1cc(C(=O)NC[C@@](O)(c2ccccc2)c2cc(C(=O)NC3(C)CC3)c(F)c(-c3cc(Cl)c(F)cc3F)n2)cc2cn(C3CC3)nc12 [Example 195] | > 50 | > 1000
COc1cc(C(=O)NC[C@@](O)(c2ccccc2)c2cc(C(C)(C)O)c(Cl)c(-c3cc(Cl)c(F)cc3F)n2)cc2cn(C3CC3)nc12 (single isomer, unassigned) [Example 132] | < 10 | < 1000
COc1cc(C(=O)NC[C@](O)(c2cc(C3(C(N)=O)CC3)cc(-c3ccc(F)c(Cl)c3F)n2)C2CC2)cc2cn(C3CC3)nc12 (single isomer, unassigned) [Example 26] | < 10 | > 1000
COc1cc(C(=O)NC[C@](O)(c2cc(C(F)(F)C(N)=O)c(F)c(-c3ccc(F)c(Cl)c3F)n2)C2CC2)ccc1OC[C@@H](C)O (single isomer, unassigned) [Example 37] | > 50 | 
COc1cc(C(=O)NC[C@](O)(c2cc(C(F)(F)C(N)=O)c(F)c(-c3ccc(F)c(Cl)c3F)n2)C2CC2)cc2cn(C(F)F)nc12 (single isomer, unassigned) [Example 34] | 10 to 50 | 
Cc1nc2c(OC(F)F)cc(C(=O)NC[C@](O)(c3cc(C4(O)CC4)c(F)c(-c4ccc(F)cc4)n3)C3CC3)cc2cc1Br (single isomer, unassigned) [Example 51] | 10 to 50 | > 1000
COc1cc(C(=O)NC[C@](O)(c2cc(C(C)(C)O)c(F)c(-c3cc(Cl)c(F)cc3F)n2)C2CC2)cc2cc(Cl)c(C)nc12 [Example 57] | < 10 | < 1000
COc1cc(C(=O)NC[C@](O)(c2cc(C(C)(C)O)c(F)c(-c3ccc(F)cc3)n2)C2CC2)cc2cc(C3CC3)nn12 (single isomer, unassigned) [Example 8] | < 10 | < 1000
COc1cc(C(=O)NC[C@](O)(c2cc(C(F)(F)C(N)=O)c(F)c(-c3ccc(F)c(Cl)c3F)n2)C2CC2)cc2cn(C3CC3)nc12 (single isomer, unassigned) [Example 32] | 10 to 50 | 
COc1cc(C(=O)NC[C@](O)(c2cc(C3(C(N)=O)CC3)c(F)c(-c3cc(Cl)c(F)cc3F)n2)C2CC2)cc2cn(C3(F)CC3)nc12 (single isomer, unassigned) [Example 13] | 10 to 50 | 
COc1cc(C(=O)NC[C@](O)(c2cc(C3(C(N)=O)CC3)cc(-c3ccc(F)c(Cl)c3F)n2)C2CC2)cc2cn(C(F)F)nc12 (single isomer, unassigned) [Example 27] | < 10 | 
COc1cc(C(=O)NC[C@](O)(c2cc(C3(C(N)=O)CC3)c(F)c(-c3cc(Cl)c(F)cc3F)n2)C2CC2)cc2cn(C3CC3)nc12 (single isomer, unassigned) [Example 11] | 10 to 50 | 

SMILES | EC50 [1] [nM] | EC50 (HMPV A2 TN/94-49) [nM]
COc1cc(C(=O)NC[C@](O)(c2cc(C(F)(F)C(N)=O)c(F)c(-c3cc(Cl)c(F)cc3F)n2)C2CC2)cc2cc(Cl)c(C)nc12 (single isomer, unassigned) [Example 42] | > 50 | 
COc1cc(C(=O)NC[C@](O)(c2cc(C3(C#N)CC3)c(F)c(-c3cc(Cl)c(F)cc3F)n2)C2CC2)cc2cn(C3CC3)nc12 (single isomer, unassigned) [Example 12] | 10 to 50 | 
Cc1nc2c(OC(F)F)cc(C(=O)NC[C@](O)(c3cc(C(O)(C(F)(F)F)C(F)(F)F)c(F)c(-c4ccc(F)cc4)n3)C3CC3)cc2cc1Br (single isomer, unassigned) [Example 46] | 10 to 50 | 
NC(=O)C1(c2cc([C@@](O)(CNC(=O)c3cc(OC4CC4)c4nn(C5CC5)cc4c3)C3CC3)nc(-c3cc(Cl)c(F)cc3F)c2F)CC1 (single isomer, unassigned) [Example 14] | 10 to 50 | 
N#CC1(c2cc([C@@](O)(CNC(=O)c3cc(OC4CC4)c4nn(C5(F)CC5)cc4c3)C3CC3)nc(-c3cc(Cl)c(F)cc3F)c2F)CC1 (single isomer, unassigned) [Example 17] | 10 to 50 | 
COc1cc(C(=O)NC[C@](O)(c2cc(C(C)(C)C(N)=O)c(F)c(-c3ccc(F)cc3)n2)C2CC2)cc2cn(C3CC3)nc12 (single isomer, unassigned) [Example 43] | < 10 | 
Cc1nc2c(OC3CC3)cc(C(=O)NC[C@](O)(c3cc(C(C)(C)C(N)=O)c(F)c(-c4ccc(F)cc4)n3)C3CC3)cc2cc1Cl (single isomer, unassigned) [Example 44] | < 10 | 
NC(=O)C(F)(F)c1cc([C@@](O)(CNC(=O)c2cc(OC3CC3)c3nn(C4CC4)cc3c2)C2CC2)nc(-c2ccc(F)c(Cl)c2F)c1F (single isomer, unassigned) [Example 36] | 10 to 50 | 
Cc1nc2c(OC(F)F)cc(C(=O)NC[C@](O)(c3cc(C(C)(C)C(N)=O)c(F)c(-c4ccc(F)cc4)n3)C3CC3)cc2cc1Br (single isomer, unassigned) [Example 45] | 10 to 50 | 
NC(=O)C1(c2cc([C@@](O)(CNC(=O)c3cc(OC4CC4)c4nn(C5(F)CC5)cc4c3)C3CC3)nc(-c3cc(Cl)c(F)cc3F)c2F)CC1 (single isomer, unassigned) [Example 16] | 10 to 50 | 
COc1cc(C(=O)NC[C@](O)(c2cc(C(F)(F)C(N)=O)c(F)c(-c3cc(Cl)c(F)cc3F)n2)C2CC2)cc2cn(C(F)F)nc12 (single isomer, unassigned) [Example 41] | 10 to 50 | 
COc1cc(C(=O)NC[C@](O)(c2cc(C(F)(F)C(N)=O)c(F)c(-c3ccc(F)c(Cl)c3F)n2)C2CC2)cc2cn(C3(F)CC3)nc12 (single isomer, unassigned) [Example 33] | < 10 | 
N#CC1(c2cc([C@@](O)(CNC(=O)c3cc(OC4CC4)c4nn(C5CC5)cc4c3)C3CC3)nc(-c3cc(Cl)c(F)cc3F)c2F)CC1 (single isomer, unassigned) [Example 15] | 10 to 50 | 
COc1cc(C(=O)NC[C@](O)(c2cc(C(F)(F)C#N)c(F)c(-c3cc(Cl)c(F)cc3F)n2)C2CC2)cc2cn(C3(F)CC3)nc12 [Example 40] | 10 to 50 | 
COc1cc(C(=O)NC[C@](O)(c2cc(C(F)(F)C(N)=O)c(F)c(-c3ccc(F)c(Cl)c3F)n2)C2CC2)cc2cc(Cl)c(C)nc12 (single isomer, unassigned) [Example 35] | > 50 | 
COc1cc(C(=O)NC[C@@](O)(c2ccccc2)c2cc(C(C)(C)O)c(Cl)c(-c3ccc4c(c3Cl)OC(F)(F)O4)n2)cc2cn(C(F)F)nc12 [Example 138] |  | < 1000
